Test [1] relates to induction of TAT by dexamethasone in HepG2 cells. The test is described as follows: HepG2 tyrosine aminotransferase (TAT) assay. Type of test: cell-based, human. The conditions noted are these: HepG2 cells, challenge of 100 nM dexamethasone; Ki from IC50 by Cheng and Prusoff equation.
A further test addresses T1, human recombinant GR (Homo sapiens, UniProt P04150).
T1 construct: purchased PanVera P2812
T1 sequence (P04150 1-777): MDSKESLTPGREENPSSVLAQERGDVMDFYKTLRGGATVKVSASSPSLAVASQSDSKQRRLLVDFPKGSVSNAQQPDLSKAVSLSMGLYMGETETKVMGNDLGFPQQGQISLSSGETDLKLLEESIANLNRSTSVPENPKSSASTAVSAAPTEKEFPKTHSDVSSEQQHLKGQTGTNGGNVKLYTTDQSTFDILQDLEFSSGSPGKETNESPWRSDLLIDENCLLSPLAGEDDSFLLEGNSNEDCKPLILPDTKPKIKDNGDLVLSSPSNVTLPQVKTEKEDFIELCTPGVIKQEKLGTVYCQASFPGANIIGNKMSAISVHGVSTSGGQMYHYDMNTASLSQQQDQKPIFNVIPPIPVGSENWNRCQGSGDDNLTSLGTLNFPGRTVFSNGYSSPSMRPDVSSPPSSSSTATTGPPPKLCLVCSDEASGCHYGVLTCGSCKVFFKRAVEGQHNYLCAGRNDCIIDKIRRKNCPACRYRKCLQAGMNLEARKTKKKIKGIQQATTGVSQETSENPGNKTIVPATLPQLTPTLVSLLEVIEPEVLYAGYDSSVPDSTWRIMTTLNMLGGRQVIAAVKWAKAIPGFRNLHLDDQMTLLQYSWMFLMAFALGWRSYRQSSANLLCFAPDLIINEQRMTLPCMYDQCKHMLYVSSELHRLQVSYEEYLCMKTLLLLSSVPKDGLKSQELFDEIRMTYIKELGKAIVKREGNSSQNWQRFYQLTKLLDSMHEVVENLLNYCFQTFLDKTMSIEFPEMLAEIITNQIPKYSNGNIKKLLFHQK
The test is described as follows: Human glucocorticoid receptor (GR) fluorescence polarisation (FP) binding assay. Conditions: human recombinant GR, fluorescence polarisation binding assay; read-out: GR binding. A digest of the protocol: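 Competition fluorescence polarisation: 0.5 nM GS Red labelled glucocorticoid and 1 nM recombinant human GR with 8-point half-log compound series, 1% DMSO, 4 h room temperature, potassium phosphate pH 7.4 buffer with molybdate, EDTA, DTT. Affinity derived from the drop in polarisation, normalised to blank wells.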
(Fluorescence polarisation rises when a labelled molecule tumbles more slowly, as on binding a larger partner.)

On to `Cc1ccnc(C(=O)[C@]23Cc4cnn(-c5ccc(F)cc5)c4C=C2CCN(S(=O)(=O)c2cn(C)cn2)C3)c1` [Example 11V, (R)-(1-(4-fluorophenyl)-6-((1-methyl-1H-imidazol-4-yl)sulfonyl)-4,4a,5,6,7,8-hexahydro-1H-pyrazolo[3,4-g]isoquinolin-4a-yl)(4-methylpyridin-2-yl)methanone], for which the results for the Ki (in test [1]; on human recombinant GR) were 20 to 100 nM and < 0.5 nM, respectively.
`Cc1ccnc(C(=O)[C@]23Cc4cnn(-c5ccc(F)cc5)c4C=C2CCN(S(=O)(=O)c2cc(F)cc(F)c2)C3)c1` [Example 11W, (R)-(6-((3,5-difluorophenyl)sulfonyl)-1-(4-fluorophenyl)-4,4a,5,6,7,8-hexahydro-1H-pyrazolo[3,4-g]isoquinolin-4a-yl)(4-methylpyridin-2-yl)methanone]: the Ki is < 20 nM in test [1] and < 0.5 nM on human recombinant GR.
Taken in the same sequence, the figures for `Cc1ccnc(C(=O)[C@]23Cc4cnn(-c5ccc(F)cc5)c4C=C2CCN(S(=O)(=O)c2cc(F)c(F)c(F)c2)C3)c1` [Example 11X, (R)-(1-(4-fluorophenyl)-6-((3,4,5-trifluorophenyl)sulfonyl)-4,4a,5,6,7,8-hexahydro-1H-pyrazolo[3,4-g]isoquinolin-4a-yl)(4-methylpyridin-2-yl)methanone] were < 20 nM and < 0.5 nM.
Taken in the same sequence, the figures for `CS(=O)(=O)c1cccc(S(=O)(=O)N2CCC3=Cc4c(cnn4-c4ccc(F)cc4)C[C@]3(C(=O)c3ccccn3)C2)c1` [Example 11Y, (R)-(1-(4-fluorophenyl)-6-((3-(methylsulfonyl)phenyl)sulfonyl)-4,4a,5,6,7,8-hexahydro-1H-pyrazolo[3,4-g]isoquinolin-4a-yl)(pyridin-2-yl)methanone] were 20 to 100 nM and < 0.5 nM.
Taken in the same sequence, the figures for `O=C(c1nccs1)[C@]12Cc3cnn(-c4ccc(F)cc4)c3C=C1CCN(S(=O)(=O)c1cccc(C(F)(F)F)c1)C2` [Example 12, (R)-(1-(4-fluorophenyl)-6-((3-(trifluoromethyl)phenyl)sulfonyl)-4,4a,5,6,7,8-hexahydro-1H-pyrazolo[3,4-g]isoquinolin-4a-yl)(thiazol-2-yl)methanone] were < 20 nM and < 0.5 nM.
As for `Cc1cccc(S(=O)(=O)N2CCC3=Cc4c(cnn4-c4ccc(F)cc4)C[C@]3(C(=O)c3nccs3)C2)c1` [Example 12A, (R)-(1-(4-fluorophenyl)-6-(m-tolylsulfonyl)-4,4a,5,6,7,8-hexahydro-1H-pyrazolo[3,4-g]isoquinolin-4a-yl)(thiazol-2-yl)methanone], the Ki in test [1] is < 20 nM; at human recombinant GR, < 0.5 nM.
Consider `COc1cccc(S(=O)(=O)N2CCC3=Cc4c(cnn4-c4ccc(F)cc4)C[C@]3(C(=O)c3nccs3)C2)c1` [Example 12B, (R)-(1-(4-fluorophenyl)-6-((3-methoxyphenyl)sulfonyl)-4,4a,5,6,7,8-hexahydro-1H-pyrazolo[3,4-g]isoquinolin-4a-yl)(thiazol-2-yl)methanone], for which the Ki in test [1] is 20 to 100 nM; on human recombinant GR, 0.5 to 1 nM.
The corresponding values for `Cc1ccc(S(=O)(=O)N2CCC3=Cc4c(cnn4-c4ccc(F)cc4)C[C@]3(C(=O)c3nccs3)C2)cc1F` [Example 12C, (R)-(6-((3-fluoro-4-methylphenyl)sulfonyl)-1-(4-fluorophenyl)-4,4a,5,6,7,8-hexahydro-1H-pyrazolo[3,4-g]isoquinolin-4a-yl)(thiazol-2-yl)methanone] are 20 to 100 nM and < 0.5 nM.
In the case of `O=C(c1nccs1)[C@]12Cc3cnn(-c4ccc(F)cc4)c3C=C1CCN(S(=O)(=O)c1ccccc1)C2` [Example 12D, (R)-(1-(4-fluorophenyl)-6-(phenylsulfonyl)-4,4a,5,6,7,8-hexahydro-1H-pyrazolo [3,4-g]isoquinolin-4a-yl)(thiazol-2-yl)methanone], the Ki in test [1] is < 20 nM; on human recombinant GR it was < 0.5 nM.
Taken in the same sequence, the figures for `O=C(c1nccs1)[C@]12Cc3cnn(-c4ccc(F)cc4)c3C=C1CCN(S(=O)(=O)c1cccc(Cl)c1)C2` [Example 12E, (R)-(6-((3-chlorophenyl)sulfonyl)-1-(4-fluorophenyl)-4,4a,5,6,7,8-hexahydro-1H-pyrazolo[3,4-g]isoquinolin-4a-yl)(thiazol-2-yl)methanone] were 20 to 100 nM and < 0.5 nM.
The corresponding values for `Cc1ccc(C(=O)[C@]23Cc4cnn(-c5ccc(F)cc5)c4C=C2CCN(S(=O)(=O)c2cccc(C)c2)C3)nc1` [Example 12F, (R)-(1-(4-fluorophenyl)-6-(m-tolylsulfonyl)-4,4a,5,6,7,8-hexahydro-1H-pyrazolo [3,4-g]isoquinolin-4a-yl)(5-methylpyridin-2-yl)methanone] are < 20 nM and < 0.5 nM.
Taken in the same sequence, the figures for `Cc1cccc(S(=O)(=O)N2CCC3=Cc4c(cnn4-c4ccc(F)cc4)C[C@]3(C(=O)c3cc(C)ccn3)C2)c1` [Example 12G, (R)-(1-(4-fluorophenyl)-6-(m-tolylsulfonyl)-4,4a,5,6,7,8-hexahydro-1H-pyrazolo[3,4-g]isoquinolin-4a-yl)(4-methylpyridin-2-yl)methanone] were < 20 nM and < 0.5 nM.
In the case of `Cc1cccc(S(=O)(=O)N2CCC3=Cc4c(cnn4-c4ccc(F)cc4)C[C@]3(C(=O)c3cccc(C)n3)C2)c1` [Example 12H, (R)-(1-(4-fluorophenyl)-6-(m-tolylsulfonyl)-4,4a,5,6,7,8-hexahydro-1H-pyrazolo[3,4-g]isoquinolin-4a-yl)(6-methylpyridin-2-yl)methanone], the Ki in test [1] is < 20 nM; at human recombinant GR, < 0.5 nM.
In the case of `O=C(c1nccs1)[C@]12Cc3cnn(-c4ccc(F)cc4)c3C=C1CCN(S(=O)(=O)c1ccc(F)c(C(F)(F)F)c1)C2` [Example 12I, (R)-(6-((4-fluoro-3-(trifluoromethyl)phenyl)sulfonyl)-1-(4-fluorophenyl)-4,4a,5,6,7,8-hexahydro-1H-pyrazolo[3,4-g]isoquinolin-4a-yl)(thiazol-2-yl)methanone], the Ki is 20 to 100 nM in test [1] and < 0.5 nM at human recombinant GR.
For `O=C(c1nccs1)[C@]12Cc3cnn(-c4ccc(F)cc4)c3C=C1CCN(S(=O)(=O)c1cc(F)c(F)c(F)c1)C2` [Example 12J, (R)-(1-(4-fluorophenyl)-6-((3,4,5-trifluorophenyl)sulfonyl)-4,4a,5,6,7,8-hexahydro-1H-pyrazolo[3,4-g]isoquinolin-4a-yl)(thiazol-2-yl)methanone], the Ki in test [1] is 20 to 100 nM; at human recombinant GR it was < 0.5 nM.
The corresponding values for `O=C(c1nccs1)[C@]12Cc3cnn(-c4ccc(F)cc4)c3C=C1CCN(S(=O)(=O)c1ccc(C(F)(F)F)c(F)c1)C2` [Example 12K, (R)-(6-((3-fluoro-4-(trifluoromethyl)phenyl)sulfonyl)-1-(4-fluorophenyl)-4,4a,5,6,7,8-hexahydro-1H-pyrazolo[3,4-g]isoquinolin-4a-yl)(thiazol-2-yl)methanone] are 20 to 100 nM and < 0.5 nM.
The corresponding values for `Cc1cnc(C(=O)[C@]23Cc4cnn(-c5ccc(F)cc5)c4C=C2CCN(S(=O)(=O)c2cccc(C(F)(F)F)c2)C3)s1` [Example 12L, (R)-(1-(4-fluorophenyl)-6-((3-(trifluoromethyl)phenyl)sulfonyl)-4,4a,5,6,7,8-hexahydro-1H-pyrazolo[3,4-g]isoquinolin-4a-yl)(5-methylthiazol-2-yl)methanone] are < 20 nM and < 0.5 nM.
Consider `Cc1csc(C(=O)[C@]23Cc4cnn(-c5ccc(F)cc5)c4C=C2CCN(S(=O)(=O)c2cccc(C(F)(F)F)c2)C3)n1` [Example 12M, (R)-(1-(4-fluorophenyl)-6-((3-(trifluoromethyl)phenyl)sulfonyl)-4,4a,5,6,7,8-hexahydro-1H-pyrazolo[3,4-g]isoquinolin-4a-yl)(4-methylthiazol-2-yl)methanone], for which the Ki in test [1] lay in the range of 20 to 100 nM; at human recombinant GR, 0.5 to 1 nM.
For the molecule `O=C(c1nccs1)[C@]12Cc3cnn(-c4ccc(F)cc4)c3C=C1CCN(S(=O)(=O)c1ccc(Cl)c(Cl)c1)C2` [Example 12N, (R)-(6-((3,4-dichlorophenyl)sulfonyl)-1-(4-fluorophenyl)-4,4a,5,6,7,8-hexahydro-1H-pyrazolo[3,4-g]isoquinolin-4a-yl)(thiazol-2-yl)methanone], the Ki is < 20 nM in test [1] and 0.5 to 1 nM on human recombinant GR.
On to `O=C(c1nccs1)[C@]12Cc3cnn(-c4ccc(F)cc4)c3C=C1CCN(S(=O)(=O)c1ccc(F)c(F)c1)C2` [Example 12P, (R)-(6-((3,4-difluorophenyl)sulfonyl)-1-(4-fluorophenyl)-4,4a,5,6,7,8-hexahydro-1H-pyrazolo[3,4-g]isoquinolin-4a-yl)(thiazol-2-yl)methanone], for which the figures for the Ki (in test [1]; on human recombinant GR) were 20 to 100 nM and < 0.5 nM, respectively.
